# Legend:
# [1] = test system: human cell lines; experiment: MTT cytotoxicity assay, cell line panel (line not specified); format: cell-based; details: at a concentration as high as 60 μM
# Method: (§1) To estimate the anticancer potential of palladacycles 2a,b, their ability to inhibit cell growth in different solid and blood cancer cell lines was determined using the conventional MTT assay. […] This underscores the importance of a more labile pincer-type coordination that can be achieved not only by the introduction of two different donor centers (like hard nitrogen and soft sulfur atoms) but also via elongating one of the side arms (like in the considered thiophosphoryloxy and thiocarbamate derivatives). In turn, the stability of a pincer-type framework of complex 2b, used as a representative example, in neat DMSO, DMSO–water, and DMSO–PBS mixtures for 2 days was confirmed by the results of UV-vis spectroscopic studies (for the corresponding spectra, see Figures S33–S35 in the SI).
# However, in certain cases, the selectivity indices approached and even exceeded 10.0. Of particular note is the same level of cytotoxicity of both benzothiazole–thiocarbamate complexes against parental cell lines and doxorubicin-resistant clones of non-cancerous mammary epithelial cells (HBL100 and HBL100/Dox) and, more importantly, chronic myelogenous leukemia cells K562 and K562/iS9. […]
# [2] = test system: human colorectal carcinoma (HCT116) cells; experiment: MTT cytotoxicity assay, HCT116; format: cell-based; details: for IC50: HCT116, MTT assay
# Method: (§2) To estimate the anticancer potential of palladacycles 2a,b, their ability to inhibit cell growth in different solid and blood cancer cell lines was determined using the conventional MTT assay.
# (§3) The cytotoxicities of ligand 1b and Pd(II) pincer complexes 2a,b, V, and VI (X = O) were studied on human colorectal carcinoma (HCT116), breast cancer (MCF7), prostate adenocarcinoma (PC3), chronic myelogenous leukemia (K562 and K562/iS9), multiple plasmacytoma (AMO1), and acute lymphoblastic leukemia (H9) cell lines, as well as human embryonic kidney (HEK293) and mammary epithelial (HBL100 and HBL100/Dox) cells used as representatives of non-cancerous cell lines. All the cell lines were obtained from American Type Culture Collection (ATCC). The tested compounds were initially dissolved in DMSO. […] The detailed procedure is described in Ref. [52].
# [3] = test system: breast cancer (MCF7) cells; experiment: MTT cytotoxicity assay, MCF7; format: cell-based, human; details: for IC50: MCF7, MTT assay
# Method: as §2, §3
# [4] = test system: prostate adenocarcinoma (PC3) cells; experiment: MTT cytotoxicity assay, PC3; format: cell-based, human; details: for IC50: PC3, MTT assay
# Method: as §2, §3
# [5] = test system: chronic myelogenous leukemia K562 cells; experiment: MTT cytotoxicity assay, K562; format: cell-based, human
# Method: as §2, §3
# [6] = test system: doxorubicin-resistant chronic myelogenous leukemia K562/iS9 cells; experiment: MTT cytotoxicity assay, K562/iS9; format: cell-based, human
# Method: as §1
# (§4) However, in certain cases, the selectivity indices approached and even exceeded 10.0. Of particular note is the same level of cytotoxicity of both benzothiazole–thiocarbamate complexes against parental cell lines and doxorubicin-resistant clones of non-cancerous mammary epithelial cells (HBL100 and HBL100/Dox) and, more importantly, chronic myelogenous leukemia cells K562 and K562/iS9. The additional investigations by flow cytometry performed on K562 and K562/iS9 cancer cells treated with complex 2a using the Annexin V-FITC/PI double staining assay confirmed its ability to […] (Figure 4), increasing the populations of early (lower right quadrants) and late (upper right quadrants) apoptotic cells in both parental and resistant lines. These findings argue for the possibility of creating new promising anticancer agents based on the related cyclopalladated derivatives that could potentially evade drug resistance of cancer cells.
# (§5) The cytotoxicities of ligand 1b and Pd(II) pincer complexes 2a,b, V, and VI (X = O) were studied on human colorectal carcinoma (HCT116), breast cancer (MCF7), prostate adenocarcinoma (PC3), chronic myelogenous leukemia (K562 and K562/iS9), multiple plasmacytoma (AMO1), and acute lymphoblastic leukemia (H9) cell lines, as well as human embryonic kidney (HEK293) and mammary epithelial (HBL100 and HBL100/Dox) cells used as representatives of non-cancerous cell lines. All the cell lines were obtained from American Type Culture Collection (ATCC). The tested compounds were initially dissolved in DMSO. Cisplatin (in the initial form of an infusion concentrate in natural saline solution) from a commercial source was used as a positive control. The detailed procedure is described in Ref. [52].
# [7] = test system: multiple plasmacytoma (AMO1) cells; experiment: MTT cytotoxicity assay, AMO1; format: cell-based, human
# Method: as §2, §3
# [8] = test system: acute lymphoblastic leukemia (H9) cells; experiment: MTT cytotoxicity assay, H9; format: cell-based, human
# Method: as §2, §3
# [9] = test system: human embryonic kidney (HEK293) cells; experiment: MTT cytotoxicity assay, HEK293; format: cell-based; details: HEK293 (non-cancerous)
# Method: as §2, §3
# [10] = test system: mammary epithelial HBL100 cells; experiment: MTT cytotoxicity assay, HBL100; format: cell-based, human; details: HBL100 (non-cancerous)
# Method: as §2, §3
# [11] = test system: doxorubicin-resistant mammary epithelial HBL100/Dox cells; experiment: MTT cytotoxicity assay, HBL100/Dox; format: cell-based, human; details: HBL100/dox (non-cancerous, doxorubicin-resistant)
# Method: as §1, §4, §5
# [12] = Stability by UV-vis spectroscopy; format: physicochemical
# Method: as §1
# The UV–vis spectra were registered on a Cary50 spectrometer in quartz cells with 10 mm path length (Figures S33–S35 in the SI).
# Figure S33. […]
# DMSO–PBS (1:1) registered immediately after dissolution (a) , in one ( b) or two (c) days Note: a reduction in the absorbance in the case of the DMSO–PBS (1:1) solution in time is connected […]
# To confirm its identity, the resulting precipitate was collected by filtration, dried in air, dissolved in neat DMSO, and immediately analyzed by UV-Vis spectroscopy (see Fig. S35). […]
SMILES,cytotoxicity [1],IC50 [2] [µM],IC50 [3] [µM],IC50 [4] [µM],IC50 [5] [µM],IC50 [6] [µM],IC50 [7] [µM],IC50 [8] [µM],IC50 [9] [µM],IC50 [10] [µM],IC50 [11] [µM],"behaviour in DMSO–PBS (1:1) solution in time (reduction in absorbance) ([12]; DMSO–PBS (1:1), up to 2 days)","stability of the pincer-type framework ([12]; neat DMSO, DMSO–water and DMSO–PBS mixtures (1:1), 2 days)","percentage of living cells ([2]; HCT116, at a concentration of 80 μM)","percentage of living cells ([3]; MCF7, at a concentration of 80 μM)","percentage of living cells ([4]; PC3, at a concentration of 80 μM)"
"CCN(CC)C(=S)Oc1cccc(-c2nc3ccccc3s2)c1 [1b, O-[3-(Benzo[d]thiazol-2-yl)phenyl] Diethylthiocarbamate]",nontoxic,–,–,–,–,–,–,–,–,–,–,–,–,–,–,–
CN(C)C1=[S+][Pd-2]2([Cl])[c]3c(cccc3-c3sc4ccccc4[n+]32)O1 (centres unmarked) [2a],–,1.3 ± 0.2,3.3 ± 0.4,1.1 ± 0.3,0.9 ± 0.2,0.9 ± 0.1,0.3 ± 0.1,1.3 ± 0.1,2.5 ± 0.2,3.2 ± 0.5,4.4 ± 0.8,–,–,–,–,–
CCN(CC)C1=[S+][Pd-2]2([Cl])[c]3c(cccc3-c3sc4ccccc4[n+]32)O1 (centres unmarked) [2b],–,12.7 ± 1.5,13.5 ± 2.1,8.5 ± 2.5,2.9 ± 0.4,2.6 ± 0.8,4.4 ± 0.8,2.1 ± 0.9,9.5 ± 0.7,10.2 ± 3.3,16.3 ± 3.8,gradual precipitation,confirmed,–,–,–
"N.N.[Cl][Pt][Cl] [Cisplatin, reference compound]",–,–,–,–,–,16 ± 2,–,–,–,–,23.6 ± 3.6,–,–,–,–,–
"[Cl][Pd-2]12[S+]=P(c3ccccc3)(c3ccccc3)c3cccc([c]31)-c1sc3ccccc3[n+]12 (centres unmarked) [V, reference compound]",–,–,–,–,–,–,–,–,–,–,–,–,–,over 60%,over 60%,over 60%
"[Cl][Pd-2]12[S+]=P(c3ccccc3)(c3ccccc3)Oc3cccc([c]31)-c1sc3ccccc3[n+]12 (centres unmarked) [VI (X = O), reference compound]",–,10.3 ± 0.8,17 ± 0.5,6.6 ± 0.6,1.9 ± 0.3,2.5 ± 0.4,3.4 ± 0.5,1.7 ± 0.3,13 ± 0.5,9.4 ± 0.9,28.6 ± 3.8,–,–,–,–,–
